In the Biogen ADME set (Fang et al. 2023):
Values after ≈ are worked out from the molar mass of the structure shown.

Conditions: for aqueous solubility: pH 6.8

Row | Compound | MDR1-MDCK efflux ratio | intrinsic clearance, human liver microsomes | intrinsic clearance, rat liver microsomes | aqueous solubility | fraction unbound, human plasma | fraction unbound, rat plasma
1 | Cc1ccccc1CC(=O)N1CCN(C(=O)c2ccccc2)CC1 | 2.06 | 6.12 mL/min/kg | 211 mL/min/kg | 44.3 µg/mL (≈ 137 µM) |  | 
2 | O=C(CCCc1cc(Cl)sc1Cl)N1CC[C@H](O)C1 | 1.49 | 18.6 mL/min/kg | 506 mL/min/kg | 50 µg/mL (≈ 162 µM) |  | 
3 | CC(C)c1nc2c(n1C)CCN(C(=O)c1cccc(C(F)(F)F)c1F)C2 | 8.01 | 32.7 mL/min/kg | 238 mL/min/kg | 60.8 µg/mL (≈ 165 µM) |  | 
4 | Cc1ccc(NC(=O)C(C)(C)c2ccccc2)nc1 | 0.556 | 16.8 mL/min/kg | 626 mL/min/kg | 30.6 µg/mL (≈ 120 µM) |  | 
5 | COc1ccnc(N2CC(O)(C3CC3)C2)n1 | 0.711 | ≤ 4.74 mL/min/kg | 25.8 mL/min/kg |  |  | 
6 | CC(C)C(=O)Nc1ncc(-c2ccccc2)s1 | 0.393 |  |  | 0.55 µg/mL (≈ 2.23 µM) |  | 
7 | C[C@]12CCC3=C4CCC(=O)C=C4CC[C@H]3[C@@H]1CC[C@@]2(O)CC#N | 3.64 | 21 mL/min/kg | 185 mL/min/kg |  |  | 
8 | Cc1ccc(-c2nc(C(=O)N3CCc4ccccc4C3)cs2)o1 | 0.421 | 187 mL/min/kg | 3610 mL/min/kg | 36 µg/mL (≈ 111 µM) |  | 
9 | CC1(C(=O)O)CCN(Cc2ccccc2)CC1 |  | ≤ 4.74 mL/min/kg | ≤ 10.7 mL/min/kg | 44.9 µg/mL (≈ 193 µM) |  | 
10 | CCc1noc(-c2ccc(CCN)cc2)n1 | 0.479 | 394 mL/min/kg | 54.5 mL/min/kg | 44.1 µg/mL (≈ 203 µM) |  | 
11 | CC(=O)NC1(C(=O)N2CCCN(c3cccnn3)CC2)CCCCC1 | 21.8 | 7.73 mL/min/kg | 20.9 mL/min/kg | 48.3 µg/mL (≈ 140 µM) |  | 
12 | COc1nccnc1N1CCC(C(=O)Nc2cccc(F)c2)CC1 | 0.629 | 182 mL/min/kg | 298 mL/min/kg |  |  | 
13 | Cc1cc(Cl)c(OCCCN2CCNCC2)c(Br)c1 |  | ≤ 4.74 mL/min/kg | 461 mL/min/kg | 36.9 µg/mL (≈ 106 µM) |  | 
14 | CCC(=O)Nc1sc2c(c1C#N)CCC2 |  | 156 mL/min/kg | 381 mL/min/kg |  |  | 
15 | C[C@@H](Cn1nc2c(cc1=O)CCCCC2)NC(=O)CCc1ccccc1 |  | 222 mL/min/kg | 3560 mL/min/kg |  |  | 
16 | Cc1nc2cc(-c3nccn3C)nn2c(NCc2cccnc2)c1C | 28.5 | 14.7 mL/min/kg | 379 mL/min/kg | 55.7 µg/mL (≈ 167 µM) |  | 
17 | Cc1ccccc1-n1nc(C(C)(C)C)cc1N | 0.607 | 6.55 mL/min/kg | ≤ 10.7 mL/min/kg | 44.8 µg/mL (≈ 195 µM) |  | 
18 | Clc1cnc(NCC2(CN3CCCC3)CC2)nc1 | 0.734 | ≤ 4.74 mL/min/kg | 134 mL/min/kg |  |  | 
19 | O=C1CCCN1c1ccc(NCc2ccccn2)nc1 | 1.31 | ≤ 4.74 mL/min/kg | ≤ 10.7 mL/min/kg | 54.4 µg/mL (≈ 203 µM) |  | 

Row | Compound | MDR1-MDCK efflux ratio | intrinsic clearance, human liver microsomes | intrinsic clearance, rat liver microsomes | aqueous solubility | fraction unbound, human plasma | fraction unbound, rat plasma
20 | Cc1nc(NCc2sccc2C)n(C)n1 | 0.795 | ≤ 4.74 mL/min/kg | 21.6 mL/min/kg |  |  | 
21 | CC(=O)NC1CCC(NCCSc2ccc(C)cc2)CC1 (stereo not given) | 10.8 | 64.4 mL/min/kg | 499 mL/min/kg |  |  | 
22 | CN(c1nc2ccccc2o1)C1CCN(C2CCOCC2)CC1 |  | 438 mL/min/kg | 117 mL/min/kg |  |  | 
23 | CCN(Cc1cccs1)C(=O)CN1CCC(n2c(=O)[nH]c3ccccc32)CC1 |  | 151 mL/min/kg | 2800 mL/min/kg |  |  | 
24 | CC(C)CCN1CCC(CNS(C)(=O)=O)CC1 | 2.43 | ≤ 4.74 mL/min/kg | ≤ 10.7 mL/min/kg |  |  | 
25 | CNC(=O)C1(Cc2ccc(-c3cccnc3)cc2)CCN(Cc2cccc(F)c2)C1 (stereo not given) | 1.32 | 280 mL/min/kg | 982 mL/min/kg |  | 0.0676 | 0.034
26 | Cc1cc(CN2CCN(c3ncccn3)CC2)on1 | 0.608 | ≤ 4.74 mL/min/kg | 91.5 mL/min/kg | 36.7 µg/mL (≈ 141 µM) |  | 
27 | CC(C)CC(=O)NCC(=O)N1CCCC1 | 1.2 | ≤ 4.74 mL/min/kg | ≤ 10.7 mL/min/kg | 61.5 µg/mL (≈ 290 µM) |  | 
28 | Cc1ccc2nc(C)c(C(=O)N3CCC(C(=O)Nc4ccncc4)CC3)cc2c1 | 36.9 | 21.1 mL/min/kg | 70 mL/min/kg | 52.5 µg/mL (≈ 135 µM) |  | 
29 | CN1C(=O)CCc2cc(NC(=O)C(C)(C)c3ccccc3F)ccc21 |  | 29.3 mL/min/kg | 362 mL/min/kg | 80.8 µg/mL (≈ 237 µM) |  | 
30 | Cc1c(C(=O)NCCCN(C)C)sc2ncnc(Nc3ccc(F)cc3OC(C)C)c12 | 59.2 | ≤ 4.74 mL/min/kg | 52.4 mL/min/kg | 23.6 µg/mL (≈ 52.9 µM) | 0.0552 | 0.0926
31 | Cc1ccc2nc(C)c(C(=O)NOCc3ccccc3)cc2c1 | 0.666 | 19.3 mL/min/kg | 308 mL/min/kg | 20.2 µg/mL (≈ 65.8 µM) |  | 
32 | Fc1ccc(CNc2nnc(-c3ccc4c(c3)OCO4)o2)cc1 | 0.313 | 95.2 mL/min/kg | 4490 mL/min/kg | 2.57 µg/mL (≈ 8.2 µM) |  | 
33 | CN(C)c1ncn(-c2cccc(N)c2)n1 | 0.596 | 15.3 mL/min/kg | 25.4 mL/min/kg | 22.1 µg/mL (≈ 109 µM) |  | 
34 | COc1ccc2c(c1)C=C(CN1CCC(c3cc(-c4ccc(N)nc4)cc(C)n3)CC1)CO2 | 0.999 | 43.4 mL/min/kg | 169 mL/min/kg | 22.9 µg/mL (≈ 51.8 µM) |  | 
35 | COc1cc(OC)cc(-c2c(C)ncnc2OC)c1 | 0.749 | ≤ 4.74 mL/min/kg | 107 mL/min/kg |  |  | 
36 | Cc1cc(C)nc(CNC(=O)CC2CCNCC2)n1 |  | ≤ 4.74 mL/min/kg | ≤ 10.7 mL/min/kg | 55.5 µg/mL (≈ 212 µM) |  | 
37 | CN1C(=O)COc2ccc(NC(=O)CCN3C(=O)COc4ccc(Cl)cc43)cc21 | 9.31 | 155 mL/min/kg | 1170 mL/min/kg | 1.5 µg/mL (≈ 3.61 µM) |  | 
38 | COc1ccccc1CC(=O)Nc1ncc(C)s1 | 0.674 | 17.7 mL/min/kg | 261 mL/min/kg | 6.6 µg/mL (≈ 25.2 µM) |  | 

Row | Compound | MDR1-MDCK efflux ratio | intrinsic clearance, human liver microsomes | intrinsic clearance, rat liver microsomes | aqueous solubility | fraction unbound, human plasma | fraction unbound, rat plasma
39 | Nc1nnc(-c2ccc3c(c2)OCCO3)o1 | 0.657 | ≤ 4.74 mL/min/kg | 61.4 mL/min/kg | 23.4 µg/mL (≈ 107 µM) |  | 
40 | Cc1nc(Nc2ccc(F)cc2)nc2c1ncn2-c1ccc(F)cc1 | 0.388 |  |  | 0.14 µg/mL (≈ 0.415 µM) |  | 
41 | CN(c1ccc(NC(=O)Nc2ccc(OC(F)(F)F)cc2)cc1)c1ccnc(Nc2cccc(S(N)(=O)=O)c2)n1 | 8.5 | ≤ 4.74 mL/min/kg | ≤ 10.7 mL/min/kg | 1.95 µg/mL (≈ 3.4 µM) |  | 
42 | COc1cc(C=C2C(=O)NN(c3ccccc3)C2=O)ccc1OCC(N)=O |  | 158 mL/min/kg | 277 mL/min/kg | 29.7 µg/mL (≈ 80.7 µM) |  | 
43 | CCC(C)(C)N1CCN(C(=O)Nc2cnn(CC(C)C)c2C(F)F)CC1 | 4.08 | ≤ 4.74 mL/min/kg | 159 mL/min/kg |  |  | 
44 | O=C1OCCN1CCN1CCC(c2cc3ccccc3[nH]2)CC1 |  | 11.1 mL/min/kg | 488 mL/min/kg |  |  | 
45 | CCOC(=O)CNC(=O)c1ccc(O)cc1O | 0.704 | 34.3 mL/min/kg | 114 mL/min/kg | 36.2 µg/mL (≈ 151 µM) |  | 
46 | O=C([C@H]1CCCN(Cc2ccc(Cl)cc2)C1)N1CCc2ccccc2C1 | 0.788 | 251 mL/min/kg | 3840 mL/min/kg | 43.2 µg/mL (≈ 117 µM) |  | 
47 | CC1(COc2ccc3c(c2)ncn3-c2ccc3cccc(OS(=O)(=O)C(F)(F)F)c3n2)COC1 |  |  |  | 0.4 µg/mL (≈ 0.811 µM) |  | 
48 | CCCn1c(=O)c2c(nc3n2CCN3c2ccc(C)cc2)n(C)c1=O |  |  |  | 0.15 µg/mL (≈ 0.442 µM) |  | 
49 | O=C(Nc1nc2ccccc2[nH]1)c1cccnc1 |  |  |  | 0.2 µg/mL (≈ 0.839 µM) |  | 
50 | c1ccc(-c2nccc(NCc3nnc4n3CCCCC4)n2)cc1 |  | 78.9 mL/min/kg | 448 mL/min/kg |  |  | 
51 | Cc1ccccc1COC1CN(C(=O)Cn2c(=O)[nH]c3ccccc32)C1 | 7.15 | 15.3 mL/min/kg | 376 mL/min/kg | 45.2 µg/mL (≈ 129 µM) |  | 
52 | CC(C)N(C(=O)Cn1cccc2cc(C(F)F)nc1-2)C(C)C | 4.05 | 285 mL/min/kg | 436 mL/min/kg |  |  | 
53 | Cc1cc(-c2ccc(N)nc2)cc(C2CCN(C(=O)CCCc3ccc(F)c(C)c3)CC2)n1 | 2.7 | 963 mL/min/kg | 1910 mL/min/kg | 8.44 µg/mL (≈ 18.9 µM) |  | 
54 | COC(=O)[C@]12CCC(C)(C)CC1C1C(=O)C=C3[C@@]4(C)C=C(C#N)C(=O)C(C)(C)[C@@H]4CC[C@@]3(C)[C@]1(C)CC2 (stereo not given in full) |  | 93.5 mL/min/kg | 323 mL/min/kg | 3.15 µg/mL (≈ 6.23 µM) |  | 
55 | CC(=O)N1CCC[C@H]1C(=O)Nc1cccc(OC(F)F)c1 | 1.42 | ≤ 4.74 mL/min/kg | 31.4 mL/min/kg | 47 µg/mL (≈ 157 µM) |  | 
56 | O=C(NCCc1nnc2n1CCC2)c1ccc2c(c1)CCC2 | 82.7 | ≤ 4.74 mL/min/kg | 45.1 mL/min/kg | 23.6 µg/mL (≈ 79.8 µM) |  | 
57 | COc1cccc(-n2nc(C(=O)O)cc2-c2ccc(C3CCCCC3)c(Cl)c2)c1 | 1.56 | 7.78 mL/min/kg | 32.5 mL/min/kg | 33.8 µg/mL (≈ 82.1 µM) |  | 
